# From BindingDB's records for doi:10.1021/jm060996+ (Merck Research Laboratories, 2006)
# Target: Cannabinoid receptor 2 (Homo sapiens, UniProt P34972)
# Experiment: Inhibition of [3H]CP-55940 binding to human recombinant CB2 receptor in CHO cells
# Sequence of Cannabinoid receptor 2 (P34972 whole entry): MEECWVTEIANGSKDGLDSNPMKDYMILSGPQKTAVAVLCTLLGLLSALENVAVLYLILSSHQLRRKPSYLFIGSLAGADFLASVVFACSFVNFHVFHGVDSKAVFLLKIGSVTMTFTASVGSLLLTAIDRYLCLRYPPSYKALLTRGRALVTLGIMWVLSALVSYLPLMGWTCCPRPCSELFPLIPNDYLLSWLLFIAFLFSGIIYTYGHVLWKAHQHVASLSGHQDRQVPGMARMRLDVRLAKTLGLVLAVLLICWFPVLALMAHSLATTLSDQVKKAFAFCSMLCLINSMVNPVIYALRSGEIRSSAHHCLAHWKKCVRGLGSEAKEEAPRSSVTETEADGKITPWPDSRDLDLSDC
row,SMILES,IC50 [nM]
1,"C[C@H](NC(=O)C(C)(C)Oc1ccc(C(F)(F)F)cn1)[C@@H](Cc1ccc(Cl)cc1)c1ccccc1 [N-((2S,3S)-4-(4-chlorophenyl)-3-phenylbutan-2-yl)-2-methyl-2-(5-(trifluoromethyl)pyridin-2-yloxy)propanamide]",140
2,"C[C@H](NC(=O)C(C)(C)Oc1ccc(Cl)cc1)[C@@H](Cc1ccc(Cl)cc1)c1ccc(Cl)cc1 [(1S,2S)N-[2,3-bis(4-chlorophenyl)-1-methylpropyl]-2-(4-chlorophenyloxy)-2-methylpropanamide]",> 2000
3,"CC(NC(=O)C(C)(C)Oc1ccc(Cl)cc1)C(Cc1ccc(Cl)cc1)c1ccc(Cl)cc1 (stereo not given) [N-[2,3-bis(4-chlorophenyl)-1-methylpropyl]-2-(4-chlorophenyloxy)-2-methylpropanamide]",1100
4,"C[C@H](NC(=O)C(C)(C)Oc1cc(F)cc(F)c1)[C@@H](Cc1ccc(Cl)cc1)c1ccccc1 [N-((2S,3S)-4-(4-chlorophenyl)-3-phenylbutan-2-yl)-2-(3,5-difluorophenoxy)-2-methylpropanamide]",200

# More lines, now with the values ahead:
row,IC50 [nM],SMILES
1,190,"C[C@H](NC(=O)C(C)(C)Oc1cccc(Cl)c1)[C@@H](Cc1ccc(Cl)cc1)c1ccccc1 [N-[(1S,2S)-3-(4-chlorophenyl)-1-methyl-2-phenylpropyl]-2-(3-chlorophenyloxy)-2-methylpropanamide]"
2,290,"C[C@H](NC(=O)C(C)(C)Oc1cccc(F)c1)[C@@H](Cc1ccc(Cl)cc1)c1ccccc1 [N-[(1S,2S)-3-(4-chlorophenyl)-1-methyl-2-phenylpropyl]-2-(3-fluorophenyloxy)-2-methylpropanamide]"
3,88,"C[C@H](NC(=O)C(C)(C)Oc1ccccn1)[C@@H](Cc1ccc(Cl)cc1)c1ccccc1 [N-[(1S,2S)-3-(4-chlorophenyl)-1-methyl-2-phenyl-propyl]-2-(2-pyridyloxy)-2-methylpropanamide]"
4,610,CC(NC(=O)C(C)(C)Oc1ccc(Cl)cc1)C(Cc1ccc(Cl)cc1)c1ccccc1 (stereo not given) [N-[3-(4-chlorophenyl)-1-methyl-2-phenylpropyl]-2-(4-chlorophenyloxy)-2-methylpropanamide]
5,100,"C[C@H](NC(=O)C(C)(C)Oc1ccc(Cl)cn1)[C@@H](Cc1ccc(Cl)cc1)c1ccccc1 [N-[(1S,2S)-3-(4-chlorophenyl)-1-methyl-2-phenylpropyl]-2-[(5-chloro-2-pyridin-2-yl)oxy]-2-methylpropanamide]"
6,450,"C[C@H](NC(=O)C(C)(C)Oc1ccccc1)[C@@H](Cc1ccc(Cl)cc1)c1ccccc1 [N-((2S,3S)-4-(4-chlorophenyl)-3-phenylbutan-2-yl)-2-methyl-2-phenoxypropanamide]"
